Experimental data reported in EP3294317B1, “ENHANCED ANTIBIOTIC COMPOSITION” (Universitat Autònoma de Barcelona, priority 2015, dated 2016).

Key:
[1] = test system: Salmonella enterica subsp. enterica ATCC 14028; experiment: Colistin broth microdilution MIC with potentiator compounds (Example 1); type: cell-based; settings: S. enterica ATCC 14028; MIC in the presence of 1.0% DMSO / MIC in the presence of 0.1 mM potentiator compound and 1.0% DMSO; positive = increased, negative = decreased susceptibility, 1 = no effect
S. maltophilia OC323 = experiment: Colistin broth microdilution MIC with compound of formula I prepared in methanol or DMSO (Example 6); type: cell-based, Stenotrophomonas maltophilia; settings: MIC in the presence of 1.0% DMSO / MIC in the presence of 0.1 mM of compound of formula I and 1.0% DMSO
Method: (§1) The potentiator effect of the compound of the invention in a new formulation was tested by using colistin sulphate as antibiotic in combination with the enhancer compound of formula I in front of resistant clinical isolates. […]
(§2) Tests were performed to determine the potentiator effect of the compound of the invention with two colistin resistant S. maltophilia strains as shown in Table 9. S. maltophilia K279a is a reference clinical strain. The origin of clinical strain OC323 together with K279a has been described previously (Huedo et al., Two Different rpf Clusters Distributed among a Population of Stenotrophomonas maltophilia Clinical Strains Display Differential Diffusible Signal Factor Production and Virulence Regulation, J. Bacteriol., 2014, 196, 2431-2442).
(§3) Selected compound of formula I was first dissolved in 100% of Methanol (HPLC Gradient Grade CHROMASOLV. Sigma, 34885-1L-R) to 10 mM. The compound was fairly soluble in methanol up to 10 mM and required vigorous vortex.
(§4) […] MICs were determined as described in the Example 1.
(§5) Strains colistin minimal inhibitory concentration (MIC), expressed in µg/mL, and the fold increase in bacterial susceptibility to colistin when combined with the potentiator compound previously dissolved in methanol ([…]) are shown in Table 9: TABLE 9

S. maltophilia K279a = experiment: as above; type: cell-based, Stenotrophomonas maltophilia; settings: MIC in the presence of 1.0% DMSO / MIC in the presence of 0.1 mM of compound of formula I and 1.0% DMSO
Method: as §1, §2, §3, §4, §5

CN(C)CCNC(=O)c1cccc(CNC(=O)Nc2ccc3c(c2)Cc2ccccc2-3)c1 [I, N-[2-(dimethylamino)ethyl]-3-[(9H-fluoren-2-ylcarbamoylamino)methyl]benzamide]
Fold increase in bacterial susceptibility to colistin [1]: +2 fold
Fold increase in bacterial susceptibility to colistin (S. maltophilia OC323): +4 fold
Fold increase in bacterial susceptibility to colistin (S. maltophilia K279a): +4 fold
